Test results taken from US5789434A, “Derivatives of substituted 4-biarylbutyric acid as matrix metalloprotease inhibitors” (priority 1995, dated 1998).

What was measured:
MMP-3 = target: T1, MMP-3 (Homo sapiens, UniProt P08254); assay: Primary Thiopeptilide MMP-3 Inhibition Assay; format: biochemical; settings: pH 6.5; 13 nM stromelysin; x (n) = average of n determinations; read-out: MMP-3 Thiopep. IC50
T1 construct: Truncated Prostromelysin-257 was expressed in a soluble form in E.coli; made in house; host or cells: E. coli
Experimental: Enzyme: recombinant stromelysin expressed in E.coli and purified as described above. […] The protocols for the assay of compounds as stromelysin inhibitors was the same as that used for MMP-9 except that the assay buffer was 50 mM MES, pH 6.5 containing 150 mM NaCl, 10 mM CaCl2, 0.005% Brij, and 1% DMSO.

MMP-9 = target: T2, MMP-9 (Homo sapiens, UniProt P14780); assay: Thiopeptilide MMP-9 Inhibition Assay; format: biochemical; settings: for IC50: pH 6.5, x (n) = average of n determinations, read-out: MMP-9: Thiopep. IC50; for inhibition at 5 µM: read-out: MMP-9: Thiopep. % inhibition
T2 construct: from tissue; host or cells: human polymorphonuclear leukocytes (PMN) from whole blood (New York Blood Center), PMA-stimulated supernatant
T2 sequence (P14780 107-707 limits assumed): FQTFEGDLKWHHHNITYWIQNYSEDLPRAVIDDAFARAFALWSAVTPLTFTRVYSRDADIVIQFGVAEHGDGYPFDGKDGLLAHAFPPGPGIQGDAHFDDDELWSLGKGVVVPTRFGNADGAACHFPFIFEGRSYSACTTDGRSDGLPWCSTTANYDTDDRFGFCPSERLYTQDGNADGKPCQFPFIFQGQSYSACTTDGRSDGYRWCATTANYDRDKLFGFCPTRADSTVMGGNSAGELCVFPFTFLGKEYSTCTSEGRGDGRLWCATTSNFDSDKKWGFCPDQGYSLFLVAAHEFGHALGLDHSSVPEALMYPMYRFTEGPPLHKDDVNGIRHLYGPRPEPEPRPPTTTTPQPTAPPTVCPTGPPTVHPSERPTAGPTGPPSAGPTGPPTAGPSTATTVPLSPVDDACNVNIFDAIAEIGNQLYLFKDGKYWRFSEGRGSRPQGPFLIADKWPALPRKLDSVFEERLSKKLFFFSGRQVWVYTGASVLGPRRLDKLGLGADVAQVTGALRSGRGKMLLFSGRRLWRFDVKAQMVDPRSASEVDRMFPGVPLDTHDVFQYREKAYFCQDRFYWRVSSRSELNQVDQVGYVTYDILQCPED

T1 sequence (P08254 100-274 limits assumed): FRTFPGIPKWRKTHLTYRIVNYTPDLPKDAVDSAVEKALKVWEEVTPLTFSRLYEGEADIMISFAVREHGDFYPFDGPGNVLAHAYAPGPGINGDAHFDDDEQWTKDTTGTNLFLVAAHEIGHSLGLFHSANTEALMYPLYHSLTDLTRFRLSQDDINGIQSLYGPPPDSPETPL

SMILES	IC50 (MMP-3) [nM]	IC50 (MMP-9) [nM]	inhibition at 5 µM (MMP-9) [%]
O=C(CC(CSCc1ccccc1)C(=O)O)c1ccc(-c2ccc(Cl)cc2)cc1 (stereo not drawn) [Example 203, [1,1'-Biphenyl]-4-butanoic acid, 4'-chloro-γ-oxo-α-[[(phenylmethyl)thio]methyl]-]	247	1200	–
O=C(CC(CSc1ccc(O)cc1)C(=O)O)c1ccc(-c2ccc(Cl)cc2)cc1 (stereo not drawn) [Example 204, [1,1'-Biphenyl]-4-butanoic acid, 4'-chloro-α-[[(4-hydroxyphenyl)thio]methyl]-γ-oxo-]	213	215	–
O=C(CC(CSCCc1ccccc1)C(=O)O)c1ccc(-c2ccc(Cl)cc2)cc1 (stereo not drawn) [Example 205, [1,1'-Biphenyl]-4-butanoic acid, 4'-chloro-γ-oxo-α-[[(2-phenylethyl)thio]methyl]-]	87	170	–
COc1ccc(SCC(CC(=O)c2ccc(-c3ccc(Cl)cc3)cc2)C(=O)O)cc1 (stereo not drawn) [Example 206, [1,1'-Biphenyl]-4-butanoic acid, 4'-chloro-α-[[(4-methoxyphenyl)thio]methyl]-γ-oxo-]	950	417	–
O=C(CC(CSCCCc1ccccc1)C(=O)O)c1ccc(-c2ccc(Cl)cc2)cc1 (stereo not drawn) [Example 207, [1,1'-Biphenyl]-4-butanoic acid, 4'-chloro-γ-oxo-α-[[(3-phenylpropyl)thio]methyl]-]	180	290	–
O=C(CC(CSc1ccc(F)cc1)C(=O)O)c1ccc(-c2ccc(Cl)cc2)cc1 (stereo not drawn) [Example 208, [1,1'-Biphenyl]-4-butanoic acid, 4'-chloro-α-[[(4-fluorophenyl)thio]methyl]-γ-oxo-]	140	1050	–
O=C(CC(CSc1ccc(Cl)cc1)C(=O)O)c1ccc(-c2ccc(Cl)cc2)cc1 (stereo not drawn) [Example 209, [1,1'-Biphenyl]-4-butanoic acid, 4'-chloro-α-[[(4-chlorophenyl)thio]methyl]-γ-oxo-]	340	390	–
O=C(CC(CSc1ccc(Br)cc1)C(=O)O)c1ccc(-c2ccc(Cl)cc2)cc1 (stereo not drawn) [Example 210, [1,1'-Biphenyl]-4-butanoic acid, α-[[(4-bromophenyl)thio]methyl]-4'-chloroγ-oxo-]	500	205	–
Cc1ccc(SCC(CC(=O)c2ccc(-c3ccc(Cl)cc3)cc2)C(=O)O)cc1 (stereo not drawn) [Example 211, [1,1'-Biphenyl]-4-butanoic acid, 4'-chloro-α-[[(4-methylphenyl)thio]methyl]-γ-oxo-]	440	280	–
CCc1ccc(SCC(CC(=O)c2ccc(-c3ccc(Cl)cc3)cc2)C(=O)O)cc1 (stereo not drawn) [Example 212, [1,1'-Biphenyl]-4-butanoic acid, 4'-chloro-α-[[(4-ethylphenyl)thio]methyl]-γ-oxo-]	650	390	–
CC(C)(C)c1ccc(SCC(CC(=O)c2ccc(-c3ccc(Cl)cc3)cc2)C(=O)O)cc1 (stereo not drawn) [Example 213, [1,1'-Biphenyl]-4-butanoic acid, 4'-chloro-α-[[(4-(1,1-dimethylethyl)phenyl]thio]methyl]-γ-oxo-]	2500	–	41
O=C(CC(CSC1CCCCC1)C(=O)O)c1ccc(-c2ccc(Cl)cc2)cc1 (stereo not drawn) [Example 214, [1,1'-Biphenyl]-4-butanoic acid, 4'-chloro-α-[(cyclohexylthio)methyl]-γ-oxo-]	170	2200	–
COc1ccc(SCC(CC(=O)c2ccc(-c3ccc(Cl)cc3)cc2)C(=O)O)cc1OC (stereo not drawn) [Example 215, [1,1'-Biphenyl]-4-butanoic acid, 4'-chloro-α-[[(3,4-dimethoxyphenyl)thio]methyl]-γ-oxo-]	1300	1200	–
O=C(CC(CSc1ccc(Cl)c(Cl)c1)C(=O)O)c1ccc(-c2ccc(Cl)cc2)cc1 (stereo not drawn) [Example 216, [1,1'-Biphenyl]-4-butanoic acid, 4'-chloro-α-[[(3,4-dichlorophenyl)thio]methyl]-γ-oxo-]	770	590	–
O=C(CC(CSc1ccccc1CO)C(=O)O)c1ccc(-c2ccc(Cl)cc2)cc1 (stereo not drawn) [Example 217, [1,1'-Biphenyl]-4-butanoic acid, 4'-chloro-α-[[[2-(hydroxymethyl)phenyl]thio]methyl]-γ-oxo-]	83	245	–
O=C(CC(CSc1ccccc1F)C(=O)O)c1ccc(-c2ccc(Cl)cc2)cc1 (stereo not drawn) [Example 218, [1,1'-Biphenyl]-4-butanoic acid, 4'-chloro-α-[[(2-fluorophenyl)thio]methyl]-γ-oxo-]	170	435	–
O=C(CC(CSc1ccccc1Br)C(=O)O)c1ccc(-c2ccc(Cl)cc2)cc1 (stereo not drawn) [Example 219, [1,1'-Biphenyl]-4-butanoic acid, 4'-chloro-α-[[(2-bromophenyl)thio]methyl]-4'-chloro-γ-oxo-]	260	600	–
CCc1ccccc1SCC(CC(=O)c1ccc(-c2ccc(Cl)cc2)cc1)C(=O)O (stereo not drawn) [Example 220, [1,1'-Biphenyl]-4-butanoic acid, 4'-chloro-α-[[(2-ethylphenyl)thio]methyl]-γ-oxo-]	190	950	–

SMILES	IC50 (MMP-3) [nM]	IC50 (MMP-9) [nM]	inhibition at 5 µM (MMP-9) [%]
CC(C)c1ccccc1SCC(CC(=O)c1ccc(-c2ccc(Cl)cc2)cc1)C(=O)O (stereo not drawn) [Example 221, [1,1'-Biphenyl]-4-butanoic acid, 4'-chloro-α-[[[2-(1-methylethyl)phenyl]thio]methyl]-γ-oxo-]	240	2400	–
O=C(CC(CSc1ccncc1)C(=O)O)c1ccc(-c2ccc(Cl)cc2)cc1 (stereo not drawn) [Example 222, [1,1'-Biphenyl]-4-butanoic acid, 4'-chloro-γ-oxo-α-[(4-pyridinylthio)methyl]-]	610	1800	–
CC(=O)Nc1ccc(SCC(CC(=O)c2ccc(-c3ccc(Cl)cc3)cc2)C(=O)O)cc1 (stereo not drawn) [Example 223, [1,1'-Biphenyl]-4-butanoic acid, α-[[[4-(acetylamino)phenyl]thio]methyl]-4'-chloro-γ-oxo-]	930	580	–
O=C(CC(CSc1ccc([N+](=O)[O-])cc1)C(=O)O)c1ccc(-c2ccc(Cl)cc2)cc1 (stereo not drawn) [Example 224, [1,1'-Biphenyl]-4-butanoic acid, 4'-chloro-α[[(4-nitrophenyl)thio]methyl]-γ-oxo-]	680	550	–
O=C(O)CCc1ccc(SCC(CC(=O)c2ccc(-c3ccc(Cl)cc3)cc2)C(=O)O)cc1 (stereo not drawn) [Example 225, [1,1'-Biphenyl]-4-butanoic acid, α-[[[4-(2-carboxyethyl)phenyl]thio]methyl]-4'-chloro--γ-oxo-]	310	550	–
O=C(CC(CSc1ccc2ccccc2c1)C(=O)O)c1ccc(-c2ccc(Cl)cc2)cc1 (stereo not drawn) [Example 226, [1,1'-Biphenyl]-4-butanoic acid, 4'-chloro-α-[(2-naphthalenylthio)methyl]-γ-oxo-]	720	255	–
O=C(CC(CSc1cccc2ccccc12)C(=O)O)c1ccc(-c2ccc(Cl)cc2)cc1 (stereo not drawn) [Example 227, [1,1'-Biphenyl]-4-butanoic acid, 4'-chloro-α-[(1-naphthalenylthio)methyl]-γ-oxo-]	220	360	–
O=C(CC(CSc1cccc(Br)c1)C(=O)O)c1ccc(-c2ccc(Cl)cc2)cc1 (stereo not drawn) [Example 228, [1,1'-Biphenyl]-4-butanoic acid, α-[[(3-bromophenyl)thio]methyl]-4'-chloro-γ-oxo-]	360	800	–
COc1ccccc1SCC(CC(=O)c1ccc(-c2ccc(Cl)cc2)cc1)C(=O)O (stereo not drawn) [Example 229, [1,1'-Biphenyl]-4-butanoic acid, 4'-chloro-α-[[(2-methoxyphenyl)thio]methyl]-γ-oxo-]	300	900	–
O=C(CC(CSc1ccccc1Cl)C(=O)O)c1ccc(-c2ccc(Cl)cc2)cc1 (stereo not drawn) [Example 230, [1,1'-Biphenyl]-4-butanoic acid, 4'-chloro-α-[[(2-chlorophenyl)thio]methyl]-γ-oxo-]	250	550	–
Cc1cccc(SCC(CC(=O)c2ccc(-c3ccc(Cl)cc3)cc2)C(=O)O)c1 (stereo not drawn) [Example 231, [1,1'-Biphenyl]-4-butanoic acid, 4'-chloro-α-[[(3-methylphenyl)thio]methyl]-γ-oxo-]	280	820	–
Cc1ccccc1SCC(CC(=O)c1ccc(-c2ccc(Cl)cc2)cc1)C(=O)O (stereo not drawn) [Example 232, [1,1'-Biphenyl]-4-butanoic acid, 4'-chloro-α-[[(2-methylphenyl)thio]methyl]-γ-oxo-]	150	200	–
O=C(CC(CSc1ccccc1C(=O)O)C(=O)O)c1ccc(-c2ccc(Cl)cc2)cc1 (stereo not drawn) [Example 233]	339	4800	–
COc1cccc(SCC(CC(=O)c2ccc(-c3ccc(Cl)cc3)cc2)C(=O)O)c1 (stereo not drawn) [Example 234, [1,1'-Biphenyl]-4-butanoic acid, 4'-chloro-α-[[(3-methoxyphenyl)thio]methyl]-γ-oxo-]	144	600	–
CC(C)SCC(CC(=O)c1ccc(-c2ccc(Cl)cc2)cc1)C(=O)O (stereo not drawn) [Example 239, [1,1'-Biphenyl]-4-butanoic acid, 4'-chloro-α-[[(1-methylethyl)thio]methyl]-γ-oxo-]	490	–	53
O=C(CC(CSc1ccccc1O)C(=O)O)c1ccc(-c2ccc(Cl)cc2)cc1 (stereo not drawn) [Example 240, [1,1'-Biphenyl]-4-butanoic acid, 4'-chloro-α-[[(2-hydroxyphenyl)thio]methyl]-γ-oxo-]	96	300	–
O=C(CC(CSc1cccc2cccnc12)C(=O)O)c1ccc(-c2ccc(Cl)cc2)cc1 (stereo not drawn) [Example 241, [1,1'-Biphenyl]-4-butanoic acid, 4'-chloro-γ-oxo-α-[(8-quinolinylthio)methyl]-]	195	340	–
O=C(CC(CSc1cccc(Cl)c1)C(=O)O)c1ccc(-c2ccc(Cl)cc2)cc1 (stereo not drawn) [Example 242, [1,1'-Biphenyl]-4-butanoic acid, 4'-chloro-α-[[(3-chlorophenyl)thio]methyl]-γ-oxo-]	490	1300	–
